Values quoted from earlier work in US20100240621A1, “TOPICAL PHARMACEUTICAL COMPOSITION FOR THE COMBINATION OF FUSIDIC ACID AND A CORTICOSTEROID” (priority 2007, published 2010).

Columns and labels:
[1] = in vivo
[2] = solution, cream, and ointment formulations
[3] = test system: staphylococcus epidermidis; details: at 4 mg/L
[4] = test system: oxacillin-sensitive staphylococcus aureus; details: at a concentration of 0.12 mg/L
[5] = test system: oxacillin-resistant staphylococcus aureus; details: at a concentration of 2 mg/L

Structure (SMILES) | applied dose entering the circulation [1] | potency class by vasoconstrictor assay [2] | staphylococcus epidermidis inhibited [3] [%] | concentration at which 90% of organisms inhibited (Clostridium species) [mg/L] | oxacillin-sensitive staphylococcus aureus inhibited [4] [%] | oxacillin-resistant staphylococcus aureus inhibited [5] | concentration at which 90% of organisms inhibited (Peptococcus species) [mg/L] | concentration at which 90% of organisms inhibited (Propionibacterium Danes) [mg/L] | concentration at which 90% of organisms inhibited (most Bacteroides species) [mg/L]
CCC(=O)O[C@]1(C(=O)CCl)[C@@H](C)C[C@H]2[C@@H]3C[C@H](F)C4=CC(=O)C=C[C@]4(C)[C@@]3(F)[C@@H](O)C[C@@]21C [Halobetasol propionate] | less than 6% | super high-potency | – | – | – | – | – | – | –
CC(=O)O[C@H]1C[C@@]2(C)[C@@H](C[C@@H](O)[C@H]3[C@@]4(C)CC[C@@H](O)[C@@H](C)[C@@H]4CC[C@@]32C)/C1=C(\CCC=C(C)C)C(=O)O [Fusidic acid] | – | – | 99 | ≤ 2 | 100 | At least 99% | ≤ 2 | ≤ 2 | ≤ 2
